# Assay results as given in US8541418B2, “Inhibitors of polo-like kinase” (Elan Pharmaceutical, Inc., priority 2009, dated 2013).
# Key:
# Assay type in all cases: biochemical
# PLK3 = PLK3 (Homo sapiens, UniProt Q9H4B4); test: PLK TR-FRET peptide assay, PLK3; settings: GST-PLK3, 15 min reaction, read-out: Plk3 IC50
# PLK1 = PLK1 (Homo sapiens, UniProt P53350); test: PLK TR-FRET peptide assay, PLK1; settings: GST-PLK1, 60 min reaction
# PLK2 = PLK2 (Homo sapiens, UniProt Q9NYY3); test: PLK TR-FRET peptide assay, PLK2; settings: PLK TR-FRET peptide assay, GST-PLK2, 60 min reaction; read-out: Plk2 IC50
# PLK2, sequence (Q9NYY3 whole entry): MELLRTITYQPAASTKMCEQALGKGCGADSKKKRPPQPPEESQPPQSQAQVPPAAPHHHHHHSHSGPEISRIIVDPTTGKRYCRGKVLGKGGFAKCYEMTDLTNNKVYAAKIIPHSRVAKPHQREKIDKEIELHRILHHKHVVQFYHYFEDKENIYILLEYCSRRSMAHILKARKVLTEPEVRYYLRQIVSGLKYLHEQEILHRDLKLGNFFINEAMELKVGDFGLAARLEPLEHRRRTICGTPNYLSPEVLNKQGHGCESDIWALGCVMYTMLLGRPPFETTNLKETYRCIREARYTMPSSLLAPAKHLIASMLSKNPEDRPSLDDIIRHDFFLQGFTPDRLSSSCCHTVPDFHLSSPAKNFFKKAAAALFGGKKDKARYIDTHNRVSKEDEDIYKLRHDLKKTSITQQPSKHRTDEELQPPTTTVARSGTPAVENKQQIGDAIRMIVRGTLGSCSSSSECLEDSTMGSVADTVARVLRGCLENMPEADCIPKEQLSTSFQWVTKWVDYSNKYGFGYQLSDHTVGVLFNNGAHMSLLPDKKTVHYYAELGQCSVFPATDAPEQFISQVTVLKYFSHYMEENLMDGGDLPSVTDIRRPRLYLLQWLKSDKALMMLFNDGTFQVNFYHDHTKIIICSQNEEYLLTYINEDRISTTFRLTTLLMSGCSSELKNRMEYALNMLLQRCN
# PLK1, sequence (P53350 whole entry): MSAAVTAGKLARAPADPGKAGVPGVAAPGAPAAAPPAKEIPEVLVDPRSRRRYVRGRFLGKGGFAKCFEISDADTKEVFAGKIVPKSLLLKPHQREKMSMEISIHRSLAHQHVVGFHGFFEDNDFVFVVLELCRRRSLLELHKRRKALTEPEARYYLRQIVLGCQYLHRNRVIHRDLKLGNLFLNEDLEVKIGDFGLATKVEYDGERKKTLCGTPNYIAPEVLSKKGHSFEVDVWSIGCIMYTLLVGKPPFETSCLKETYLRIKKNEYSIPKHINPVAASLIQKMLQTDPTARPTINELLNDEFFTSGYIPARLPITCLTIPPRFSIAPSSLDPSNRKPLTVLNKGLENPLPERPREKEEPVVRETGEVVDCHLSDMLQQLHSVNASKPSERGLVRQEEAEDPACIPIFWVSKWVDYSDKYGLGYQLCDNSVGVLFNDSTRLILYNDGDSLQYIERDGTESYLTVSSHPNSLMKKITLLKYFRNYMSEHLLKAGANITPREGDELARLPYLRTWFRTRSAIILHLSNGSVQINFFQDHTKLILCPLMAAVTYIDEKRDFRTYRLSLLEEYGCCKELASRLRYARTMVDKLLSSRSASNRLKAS
# PLK3, sequence (Q9H4B4 whole entry): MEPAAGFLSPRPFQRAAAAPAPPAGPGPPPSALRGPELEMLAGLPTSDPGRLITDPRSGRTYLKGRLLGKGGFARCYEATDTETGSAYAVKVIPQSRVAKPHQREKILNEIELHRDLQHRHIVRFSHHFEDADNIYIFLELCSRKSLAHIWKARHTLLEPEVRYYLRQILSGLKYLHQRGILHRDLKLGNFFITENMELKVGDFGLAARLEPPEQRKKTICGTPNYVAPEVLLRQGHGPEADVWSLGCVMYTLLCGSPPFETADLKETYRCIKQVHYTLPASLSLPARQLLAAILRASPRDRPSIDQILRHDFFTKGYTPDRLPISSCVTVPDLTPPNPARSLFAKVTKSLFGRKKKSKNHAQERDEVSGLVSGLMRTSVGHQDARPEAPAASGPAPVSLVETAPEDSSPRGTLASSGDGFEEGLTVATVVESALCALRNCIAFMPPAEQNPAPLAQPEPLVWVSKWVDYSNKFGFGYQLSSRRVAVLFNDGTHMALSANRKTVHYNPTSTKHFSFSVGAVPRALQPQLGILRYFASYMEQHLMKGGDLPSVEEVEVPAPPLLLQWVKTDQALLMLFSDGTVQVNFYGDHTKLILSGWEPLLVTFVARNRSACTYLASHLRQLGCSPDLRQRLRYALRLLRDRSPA
SMILES,IC50 (PLK3) [µM],IC50 (PLK1) [µM],IC50 (PLK2) [µM]
"CC[C@@H]1C(=O)N(C)c2cnc(-n3ccnc3-c3ccncc3)nc2N1C(C)C [Example 150, (R)-7-ethyl-8-isopropyl-5-methyl-2-(2-(pyridin-4-yl)-1H-imidazol-1-yl)-7,8-dihydropteridin-6(5H)-one]",1 to 10,10 to 50,< 1
"CC[C@@H]1C(=O)N(C)c2cnc(-n3ccnc3-c3nccs3)nc2N1C(C)C [Example 151, (R)-7-ethyl-8-isopropyl-5-methyl-2-(2-(thiazol-2-yl)-1H-imidazol-1-yl)-7,8-dihydropteridin-6(5H)-one]",10 to 50,1 to 10,< 1
"CC[C@@H]1C(=O)N(C)c2cnc(-n3ccnc3-c3nccs3)nc2N1C1CCC1 [Example 156, (R)-8-cyclobutyl-7-ethyl-5-methyl-2-(2-(thiazol-2-yl)-1H-imidazol-1-yl)-7,8-dihydropteridin-6(5H)-one]",1 to 10,1 to 10,< 1
"[2H]C([2H])([2H])N1C(=O)C(C([2H])([2H])C([2H])([2H])[2H])N(C([2H])(C([2H])([2H])[2H])C([2H])([2H])[2H])c2nc(-n3ccnc3-c3nccs3)ncc21 (stereo not drawn) [Example 158, 7-perdeuteroethyl-8-perdeuteroisopropyl-5-trideuteromethyl-2-(2-(thiazol-2-yl)-1H-imidazol-1-yl)-7,8-dihydropteridin-6(5H)-one]",10 to 50,1 to 10,< 1
"[2H]C([2H])([2H])N1C(=O)C(C([2H])([2H])C([2H])([2H])[2H])N(C([2H])(C([2H])([2H])[2H])C([2H])([2H])[2H])c2nc(-n3ccnc3-c3cccc(OC(F)(F)F)c3)ncc21 (stereo not drawn) [Example 160, 7-perdeuteroethyl-8-perdeuteroisopropyl-5-trideuteromethyl-2-(2-(3-(trifluoromethoxy)phenyl)-1H-imidazol-1-yl)-7,8-dihydropteridin-6(5H)-one]",10 to 50,1 to 10,< 1
"[2H]C([2H])([2H])N1C(=O)C(C([2H])([2H])C([2H])([2H])[2H])N(C([2H])(C([2H])([2H])[2H])C([2H])([2H])[2H])c2nc(-n3ccnc3-c3ccc(C(F)(F)F)cc3)ncc21 (stereo not drawn) [Example 161, 7-perdeuteroethyl-8-perdeuteroisopropyl-5-trideuteromethyl-2-(2-(4-(trifluoromethyl)phenyl)-1H-imidazol-1-yl)-7,8-dihydropteridin-6(5H)-one]",1 to 10,1 to 10,< 1
"CC[C@@H]1C(=O)N(C)c2cnc(-c3c[nH]nc3-c3ccccc3)nc2N1C(C)C [Example 164, (R)-7-ethyl-8-isopropyl-5-methyl-2-(3-phenyl-1H-pyrazol-4-yl)-7,8-dihydropteridin-6(5H)-one]",< 1,< 1,< 1
"[2H]C([2H])([2H])N1C(=O)C(C([2H])([2H])C([2H])([2H])[2H])N(C([2H])(C([2H])([2H])[2H])C([2H])([2H])[2H])c2nc(-c3c[nH]nc3-c3ccccc3)ncc21 (stereo not drawn) [Example 165, 7-perdeuteroethyl-8-perdeuteroisopropyl-5-trideuteromethyl-2-(3-phenyl-1H-pyrazol-4-yl)-7,8-dihydropteridin-6(5H)-one]",1 to 10,< 1,< 1
"CC[C@@H]1C(=O)N(C)c2cnc(-n3ccnc3-c3ccc(C(F)(F)F)cc3)nc2N1C(C)C [Example 166, (R)-7-ethyl-8-isopropyl-5-methyl-2-(2-(4-(trifluoromethyl)phenyl)-1H-imidazol-1-yl)-7,8-dihydropteridin-6(5H)-one]",10 to 50,1 to 10,< 1
"CC[C@@H]1C(=O)N(C)c2cnc(-c3c[nH]nc3-c3ccc(C(F)(F)F)cc3)nc2N1C(C)C [Example 167, (R)-7-ethyl-8-isopropyl-5-methyl-2-(3-(4-(trifluoromethyl)phenyl)-1H-pyrazol-4-yl)-7,8-dihydropteridin-6(5H)-one]",10 to 50,1 to 10,< 1
"CC[C@@H]1C(=O)N(C)c2cnc(-c3cncnc3-c3ccc(C(F)(F)F)cc3)nc2N1C(C)C [Example 168, (R)-7-ethyl-8-isopropyl-5-methyl-2-(4-(4-(trifluoromethyl)phenyl)pyrimidin-5-yl)-7,8-dihydropteridin-6(5H)-one]",> 50,10 to 50,10 to 50
"[2H]C([2H])([2H])N1C(=O)C(C([2H])([2H])C([2H])([2H])[2H])N(C([2H])(C([2H])([2H])[2H])C([2H])([2H])[2H])c2nc(-n3ccnc3-c3ccc(F)c(F)c3)ncc21 (stereo not drawn) [Example 169, 2-(2-(3,4-difluorophenyl)-1H-imidazol-1-yl)-7-perdeuteroethyl-8-perdeuteroisopropyl-5-trideuteromethyl-7,8-dihydropteridin-6(5H)-one]",10 to 50,1 to 10,< 1
"[2H]C([2H])([2H])N1C(=O)C(C([2H])([2H])C([2H])([2H])[2H])N(C([2H])(C([2H])([2H])[2H])C([2H])([2H])[2H])c2nc(-n3ccnc3-c3ccc(OC(F)(F)F)cc3)ncc21 (stereo not drawn) [Example 170, 7-perdeuteroethyl-8-perdeuteroisopropyl-5-trideuteromethyl-2-(2-(4-(trifluoromethoxy)phenyl)-1H-imidazol-1-yl)-7,8-dihydropteridin-6(5H)-one]",> 50,10 to 50,< 1
"CC[C@@H]1C(=O)N(C)c2cnc(-n3ccnc3-c3ccc(C(F)(F)F)cc3)nc2N1C1CCC1 [Example 171, (R)-8-cyclobutyl-7-ethyl-5-methyl-2-(2-(4-(trifluoromethyl)phenyl)-1H-imidazol-1-yl)-7,8-dihydropteridin-6(5H)-one]",> 50,10 to 50,< 1
"[2H]C([2H])([2H])N1C(=O)C(C([2H])([2H])C([2H])([2H])[2H])N(C([2H])(C([2H])([2H])[2H])C([2H])([2H])[2H])c2nc(-n3ccnc3-c3cccc(C(F)(F)F)c3)ncc21 (stereo not drawn) [Example 172, 7-ethyl-8-isopropyl-5-methyl-2-(2-(3-(trifluoromethyl)phenyl)-1H-imidazol-1-yl)-7,8-dihydropteridin-6(5H)-one]",> 50,1 to 10,< 1
"CC[C@@H]1C(=O)N(C)c2cnc(-c3cnoc3-c3ccc(F)cc3)nc2N1C(C)C [Example 173, (R)-7-ethyl-2-(5-(4-fluorophenyl)isoxazol-4-yl)-8-isopropyl-5-methyl-7,8-dihydropteridin-6(5H)-one]",10 to 50,1 to 10,< 1
"CC[C@@H]1C(=O)N(C)c2cnc(-n3ccnc3-c3cc(F)cc(C(F)(F)F)c3)nc2N1C1CCC1 [Example 174, (R)-8-cyclobutyl-7-ethyl-2-(2-(3-fluoro-5-(trifluoromethyl)phenyl)-1H-imidazol-1-yl)-5-methyl-7,8-dihydropteridin-6(5H)-one]",10 to 50,1 to 10,< 1
"CC[C@@H]1C(=O)N(C)c2cnc(-c3nccnc3-c3ccc(C(F)(F)F)cc3)nc2N1C(C)C [Example 175, (R)-7-ethyl-8-isopropyl-5-methyl-2-(3-(4-(trifluoromethyl)phenyl)pyrazin-2-yl)-7,8-dihydropteridin-6(5H)-one]",10 to 50,1 to 10,1 to 10
"CC[C@@H]1C(=O)N(C)c2cnc(-c3nccnc3-c3ccc(F)cc3)nc2N1C(C)C [Example 177, (R)-7-ethyl-2-(3-(4-fluorophenyl)pyrazin-2-yl)-8-isopropyl-5-methyl-7,8-dihydropteridin-6(5H)-one]",1 to 10,1 to 10,< 1
"[2H]C([2H])([2H])N1C(=O)[C@H](C([2H])([2H])C([2H])([2H])[2H])N(C([2H])(C([2H])([2H])[2H])C([2H])([2H])[2H])c2nc(-n3ccnc3-c3cc(F)cc(F)c3)ncc21 [Example 178, (S)-2-(2-(3,5-difluorophenyl)-1H-imidazol-1-yl)-7-perdeuteroethyl-8-perdeuteroisopropyl-5-trideuteromethyl-7,8-dihydropteridin-6(5H)-one]",> 50,> 50,10 to 50
"[2H]C([2H])([2H])N1C(=O)[C@@H](C([2H])([2H])C([2H])([2H])[2H])N(C([2H])(C([2H])([2H])[2H])C([2H])([2H])[2H])c2nc(-n3ccnc3-c3cc(F)cc(F)c3)ncc21 [Example 179, (R)-2-(2-(3,5-difluorophenyl)-1H-imidazol-1-yl)-7-perdeuteroethyl-8-perdeuteroisopropyl-5-trideuteromethyl-7,8-dihydropteridin-6(5H)-one]",1 to 10,< 1,< 1
"CC[C@@]12CCCN1c1nc(-n3ccnc3-c3cc(Cl)cc(Cl)c3)ncc1N(C)C2=O [Example 184, (S)-2-(2-(3,5-dichlorophenyl)-1H-imidazol-1-yl)-6a-ethyl-5-methyl-6a,7,8,9-tetrahydropyrrolo[2,1-h]pteridin-6(5H)-one]",10 to 50,10 to 50,< 1
"CC[C@@H]1C(=O)N(C)c2cnc(-n3ccnc3-c3cc(Cl)cc(Cl)c3)nc2N1C(C)C [Example 185, (R)-2-(2-(3,5-dichlorophenyl)-1H-imidazol-1-yl)-7-ethyl-8-isopropyl-5-methyl-7,8-dihydropteridin-6(5H)-one]",1 to 10,1 to 10,< 1
"CC[C@@H]1C(=O)N(C)c2cnc(-n3ccnc3-c3ccc(F)c(Cl)c3)nc2N1C(C)C [Example 186, (R)-2-(2-(3-chloro-4-fluorophenyl)-1H-imidazol-1-yl)-7-ethyl-8-isopropyl-5-methyl-7,8-dihydropteridin-6(5H)-one]",1 to 10,1 to 10,< 1
